Measurements: US8937167B2 (Washington University, priority 2009, dated 2015)
Entries after “also recorded” stand apart in the source; their conditions may differ.

What was measured:
[1] = molecular target: T1, FimH lectin domain (residues 1-158 of UPEC J96 FimH) (Escherichia coli, UniProt P08191); type: binding; settings: Table 20; compound at 100 μM
T1 construct: made in house

[2] = type: in vitro ADME; settings: 64800 sec, […], pH 7.4
Experimental: Materials. The assay was carried out using Multiscreen PVDF 96-well plates (Millipore, Billerica, Mass.) using the company's Transporter Receiver Plate. The lipid (dioleyoylphosphotidylcholine (DOPC):Stearic Acid (80:20, wt %) in dodecane was obtained from Avanti Polar lipids (Alabaster, Ala.). Hank's Buffered Salt Solution (HBSS), pH 7.4 was obtained from MediaTech (Manassas, Va.).
Methods. Each of the test compounds was diluted to 2.5 mM in DMSO (Sigma, St Louis, Mo.) and further diluted prior to testing to 2.5 μM in HBSS, pH 7.4. The assay was performed using a Millipore 96-well Multiscreen-IP PAMPA plate, 5 μl of the lipid suspension was directly added to the PVDF membrane of the filter plate. Immediately following the addition of the lipid to the membrane, 200 μl of HBSS solution containing the test compound was added to the donor (upper) chamber. HBSS (300 μl) is also added to the receiver plate and the filter and receiver plates assembled and incubated overnight at room temperature in a moistened sealed bag to prevent evaporation. The concentration in the receiver plate as well as an equilibrium plate, that represents a theoretical, partition-free sample, was determined by HPLC-tandem mass spectrometry. Analysis of each compound was performed in triplicate.
Analysis. Analysis of both the acceptor and equilibrium samples were performed using an AB 3200 triple quadripole mass spectrometer linked to a Shimadzu DGU-20A HPLC with a Prevail C18 column (3 μm, 2.1×10 mm) with a flow rate of 0.35 ml/min. The mobile phase used was A: 0.1% Formic Acid in water, B: 0.1% Formic Acid in methanol. The elation gradient method is described in the table. Data acquisition and peak height determination was performed using Analyst v.1.4.2.
Calculations. The login of the effective permeability (LogPe) was calculated using the following equation
[formula] [formula] Where the drug concentration is the peak areas for the analyte and VD and VA is the volume of the donor and acceptor compartment respectively. The area is the surface area of the PVDF membrane (0.11 cm^2) and time is the incubation in seconds (64,800 sec). Each value is the mean of triplicates performed on the same day.

UTI89 = assay: Ex vivo gentamicin protection assay of infected mouse bladders (luminal vs intracellular bacteria); type: in vivo, E. coli (UPEC); host mouse; settings: IP 5 mg/kg pretreatment; 6 hpi
From the text: Based on the extensive elucidation of the UPEC pathogenic cascade, critical nodes in pathogenesis that mannosides would target and thereby have powerful and potent therapeutic ramifications were identified. The first step in the UPEC pathway involves FimH-mediated colonization of the bladder epithelium via the recognition of mannose receptors. Bacterial invasion into superficial bladder umbrella cells can then ensue. […] To test this, a well-established gentamicin protection assay that allows the determination of the luminally bound fraction versus the intracellular fraction was utilized (FIG. 10). […] This may be due to contamination from bacteria in the urine or bacteria that are non-specifically associated with the epithelium. In any case, blocking invasion blocks the ability of the bacteria to rapidly expand in numbers. This is due to the ability of the mannosides to block the IBC mechanism.
Gentamicin protection assay. To enumerate bacteria present in the intracellular versus extracellular compartments, bladders were aseptically harvested at 6 hpi. The bladders were then bisected twice and washed three times in 500 μl of PBS each. The wash fractions were pooled, lightly spun at 500 rpm for 5 min to pellet exfoliated bladder cells, serially diluted, and plated onto LB agar to obtain the luminal fraction. The bladders were treated with 100 μg of gentamicin/ml for 90 min at 37° C. After treatment, the bladders were washed twice with PBS to eliminate residual gentamicin, homogenized in 1 ml of PBS, serially diluted, and plated onto LB agar to enumberate the CFUs in the intracellular fraction.
To enumerate bacteria present in the intracellular versus extracellular compartments, bladders were aseptically harvested at 6 hpi. The bladders were then bisected twice and washed three times in 500 μl of PBS each. The wash fractions were pooled, lightly spun at 500 rpm for 5 min to pellet exfoliated bladder cells, serially diluted, and plated onto LB agar to obtain the luminal fraction. The bladders were treated with 100 μg of gentamicin/ml for 90 min at 37° C. […]

PBC-1 = assay: Mouse bladder infection with TMP-SMZ resistant strain, with or without TMP-SMZ in drinking water; type: in vivo, E. coli (UPEC); host C3H/HeN mouse; settings: 6 hpi, mannoside IP 30 min prior and/or TMP-SMZ 3 days in drinking water

T1 sequence (P08191 22-179): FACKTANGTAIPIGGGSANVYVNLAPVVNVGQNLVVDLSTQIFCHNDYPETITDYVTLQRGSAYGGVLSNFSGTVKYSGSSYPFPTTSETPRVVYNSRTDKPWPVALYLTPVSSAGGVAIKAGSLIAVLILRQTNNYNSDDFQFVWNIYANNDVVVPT

SMILES | DSF Melting Temp. [1] [°C] | PAMPA (LogPe) [2] | intracellular bacteria (CFUs after gentamicin treatment) (UTI89) | luminal bacteria (UTI89) | bladder bacterial CFUs (PBC-1)
COC(=O)c1cccc(-c2ccc(O[C@H]3O[C@H](CO)[C@@H](O)[C@H](O)[C@@H]3O)cc2)c1 [Compound 1, phenyl mannoside, reference compound] | 73.39 | −5.42 |  |  | 
CNC(=O)c1cc(C(=O)NC)cc(-c2ccc(O[C@H]3O[C@H](CO)[C@@H](O)[C@H](O)[C@@H]3O)cc2)c1 [ZFH-2056] |  |  | eliminated all CFUs; also recorded: significantly reduced | significantly reduced | significant drop in bacterial load
